Results from ChEMBL document CHEMBL1129675, “New directions in antibacterial research” (1996).
Values after ≈ are worked out from the molar mass of the structure shown. Active and inactive are the calls of the source. The rule behind the calls is not given here. Residues, ends and D or L forms follow the SMILES beside them.

Columns and labels:
[1] = Inhibitory activity against many clinical relevent pathogen; Range is 5-50 ug/mL; assay type: functional
Bacteroides fragilis = assay: Inhibitory activity against strain of Bacteroides fragilis; assay type: functional
Enterococcus faecium [2] = assay: Inhibitory activity against vancomycin-resistant Enterococcus faecium; assay type: functional
Pseudomonas aeruginosa = assay: Inhibitory activity against ciprofloxacin-resistant Pseudomonas aeruginosa; assay type: functional
Staphylococcus aureus [3] = assay: Inhibitory activity against ciprofloxacin-resistant Staphylococcus aureus; assay type: functional
Staphylococcus aureus [4] = assay: Inhibitory activity against strain of Staphylococcus aureus; assay type: functional
Streptococcus pneumoniae [5] = assay: Inhibitory activity against penicillin-resistant Streptococcus pneumoniae; assay type: functional
Chlamydia = assay: Antibacterial activity against Chlamydia; More active; assay type: functional, organism-based
Haemophilus influenzae = assay: Antibacterial activity against Haemophilus influenzae; Active; assay type: functional, organism-based
[6] = Antibacterial activity against Legionella; More active; assay type: functional
Pasteurella multocida = assay: Antibacterial activity against Pasteurella multocida; More active; assay type: functional, organism-based
Streptococcus sp. [7] = assay: Antibacterial activity against Streptococci; More active; assay type: functional, organism-based
[8] = Antibacterial activity against […] species.; More active; assay type: functional
Enterococcus faecalis [9] = assay: Inhibitory activity against strain of Enterococcus faecalis resistant to both vancomycin and teicoplanin
Enterococcus faecium [10] = assay: Inhibitory activity against strain of Enterococcus faecium resistant to both vancomycin and teicoplanin; assay type: functional
Enterococcus faecium [11] = assay: Inhibitory activity against VanA strain of E. faecium; Range is 64-2108 ug/mL; assay type: functional
[12] = Antibacterial activity against penicillin resistant pneumococci was determined; Active; assay type: functional
Staphylococcus aureus [13] = assay: Antibacterial activity against MRSA was determined; Active; assay type: functional, organism-based
Citrobacter freundii = assay: In vitro inhibitory activity against Citrobacter freundii; assay type: functional
Enterococcus faecalis [14] = assay: In vitro inhibitory activity against Enterococcus faecalis; assay type: functional
Enterobacter = assay: In vitro inhibitory activity against Enterobacteriaceae; Range is 0.016-0.5 ug/mL; assay type: functional
Providencia sp. = assay: In vitro inhibitory activity against Providencia species; assay type: functional
Serratia marcescens = assay: In vitro inhibitory activity against Serratia marcescens; assay type: functional
Streptococcus sp. [15] = assay: In vitro inhibitory activity against Streptococci; Range is 0.06-0.25 ug/mL; assay type: functional
Staphylococcus aureus [16] = assay: In vitro inhibitory activity against ciprofloxacin resistant MRSA; assay type: functional
Helicobacter pylori = assay: Antibacterial activity against Helicobacter pylori; Exhibits good activity; assay type: functional, organism-based
Streptococcus sp. [17] = assay: Antibacterial activity against Streptococci; Retention of potent activity; assay type: functional, organism-based
[18] = test system: Staphylococcus epidermidis; assay: Inhibitory activity against Staphylococcus epidermidis; assay type: functional
Staphylococcus aureus [19] = assay: Inhibitory activity against Staphylococcus aureus; assay type: functional
Enterococcus faecalis [20] = assay: Inhibitory activity against strain of E. faecalis; Range is 0.25-2 ug/mL; assay type: functional
Staphylococcus sp. [21] = assay: Inhibitory activity against ciprofloxacin resistant staphylococci; Range is 2-8 ug/mL; assay type: functional
Streptococcus pneumoniae [22] = assay: Inhibitory activity against S. pneumoniae; Range is 0.12-0.25 ug/mL; assay type: functional
Enterococcus faecalis [23] = assay: Inhibitory activity against VanA strain of E. faecalis; Range is 2-64 ug/mL; assay type: functional
Enterococcus faecium [24] = assay: Inhibitory activity against VanA strain of E. faecium; Range is 2-64 ug/mL; assay type: functional
Bacteria = assay: Inhibitory activity against vancomycin-sensitive Gram-positive bacteria; assay type: functional
Enterococcus = assay: Inhibitory activity against vancomycin-resistant enterococci; assay type: functional
Enterococcus faecium [25] = assay: Inhibitory activity against VanA strain of E. faecium; Range is 0.03-2 ug/mL; assay type: functional
Staphylococcus aureus [26] = assay: Inhibitory activity against MRSA; assay type: functional
Streptococcus pyogenes = assay: Inhibitory activity against Streptococcus pyogenes; assay type: functional
Streptococcus pneumoniae [27] = assay: Inhibitory activity against Streptococcus pneumoniae; assay type: functional
[28] = Inhibitory activity against VanB enterococci; Range is 0.016-1 ug/mL; assay type: functional
Enterococcus faecalis [29] = assay: Inhibitory activity against VanA strain of E. faecalis; Range is 0.03-2 ug/mL
Mus musculus [30] = species: Mus musculus; assay: Inhibitory activity against Staphylococcus aureus in mice; assay type: functional
Mus musculus [31] = species: Mus musculus; assay: Inhibitory activity against Streptococcus pneumoniae in mice; assay type: functional
Mus musculus [32] = species: Mus musculus; assay: Inhibitory activity against Streptococcus pyogenes in mice; assay type: functional
Enterococcus faecalis [33] = assay: Inhibitory activity against strain of Enterococcus faecalis; assay type: functional
Enterococcus faecium [34] = assay: Inhibitory activity against strain of Enterococcus faecium; assay type: functional
Streptococcus sp. [35] = assay: Inhibitory activity against all group A and B Streptococci; assay type: functional
Staphylococcus sp. [36] = assay: Inhibitory activity against Staphylococci; assay type: functional

## CC[C@H](C)[C@H](NC(=O)CN)C(=O)NCC(=O)N[C@@H](CCCCN)C(=O)N[C@@H](Cc1ccccc1)C(=O)N[C@@H](CC(C)C)C(=O)N[C@@H](Cc1cnc[nH]1)C(=O)N[C@@H](CO)C(=O)N[C@@H](C)C(=O)NCC(=O)N[C@@H](CCCCN)C(=O)N[C@@H](Cc1ccccc1)C(=O)NCC(=O)N[C@@H](CCCCN)C(=O)N[C@@H](C)C(=O)N[C@@H](Cc1ccccc1)C(=O)N[C@H](C(=O)NCC(=O)N[C@@H](CCC(=O)O)C(=O)N[C@H](C(=O)N[C@@H](CCSC)C(=O)N[C@@H](CCCCN)C(=O)N[C@@H](CO)C(=O)O)[C@@H](C)CC)C(C)C [MAGAININ I] (H-GIGKFLHSAGKFGKAFVGEIMKS-OH)
[1]
  MIC: 5 µg/mL (≈ 2.07 µM)

## Cc1c(N2CC[C@H](N)C2)c(F)cn2c(=O)c(C(=O)O)cc(C3CC3)c12 [ABT-719]
Bacteroides fragilis
  MIC90: 0.06 µg/mL (≈ 0.174 µM)
Enterococcus faecium [2]
  MIC90: 0.5 µg/mL (≈ 1.45 µM)
Pseudomonas aeruginosa
  MIC90: 2 µg/mL (≈ 5.79 µM)
Staphylococcus aureus [3]
  MIC90: 0.25 µg/mL (≈ 0.724 µM)
Staphylococcus aureus [4]
  MIC90: 0.015 µg/mL (≈ 0.0434 µM)
Streptococcus pneumoniae [5]
  MIC90: 0.03 µg/mL (≈ 0.0869 µM)

## CC[C@H]1OC(=O)[C@H](C)[C@@H](O[C@H]2C[C@@](C)(OC)[C@@H](O)[C@H](C)O2)[C@H](C)[C@@H](O[C@@H]2O[C@H](C)C[C@H](N(C)C)[C@H]2O)[C@](C)(O)C[C@@H](C)CN(C)[C@H](C)[C@@H](O)[C@]1(C)O
Chlamydia
  Activity: Active
Haemophilus influenzae
  Activity: Active
[6]
  Activity: Active
Pasteurella multocida
  Activity: Active
Streptococcus sp. [7]
  Activity: Active
[8]
  Activity: Active

## CN[C@H](CC(C)C)C(=O)N[C@H]1C(=O)N[C@@H](CC(N)=O)C(=O)N[C@H]2C(=O)N[C@H]3C(=O)N[C@H](C(=O)N[C@H](C(=O)O)c4cc(O)cc(O)c4-c4cc3ccc4O)[C@H](O)c3ccc(c(Cl)c3)Oc3cc2cc(c3O[C@@H]2O[C@H](CO)[C@@H](O)[C@H](O)[C@H]2O[C@H]2C[C@](C)(N)[C@H](O)[C@H](C)O2)Oc2ccc(cc2Cl)[C@H]1O [VANCOMYCIN]
Enterococcus faecalis [9]
  MIC: ≥ 128 µg/mL
Enterococcus faecium [10]
  MIC: ≥ 128 µg/mL
Enterococcus faecium [11]
  MIC: 64 µg/mL (≈ 44.2 µM)

## C[C@@H](O)[C@H]1C(=O)N2C(C(=O)[O-])=C(c3ccc4c(c3)-c3ccc(C[n+]5ccn(C)c5)cc3C4=O)C[C@H]12
[12]
  Activity: Active
Staphylococcus aureus [13]
  Activity: Active

## NC1CCN(c2c(F)cc3c(=O)c(C(=O)O)cn(C4CC4)c3c2Cl)C1 (stereo unspecified) [CLINAFLOXACIN]
Citrobacter freundii
  MIC90: 0.5 µg/mL (≈ 1.37 µM)
Enterococcus faecalis [14]
  MIC90: 0.5 µg/mL (≈ 1.37 µM)
Enterobacter
  MIC90: 0.016 µg/mL (≈ 0.0437 µM)
Providencia sp.
  MIC90: 0.5 µg/mL (≈ 1.37 µM)
Serratia marcescens
  MIC90: 0.5 µg/mL (≈ 1.37 µM)
Streptococcus sp. [15]
  MIC90: 0.06 µg/mL (≈ 0.164 µM)
Staphylococcus aureus [16]
  MIC90: 1 µg/mL (≈ 2.73 µM)

## CC[C@H]1OC(=O)[C@H](C)[C@@H](OC2CC(C)(O)C(O)C(C)O2)[C@H](C)[C@@H](OC2OC(C)CC(N(C)C)C2O)[C@](C)(OC)C[C@@H](C)C(=O)[C@H](C)[C@@H](O)[C@]1(C)O (stereo partly specified)
Chlamydia
  Activity: Active
Haemophilus influenzae
  Activity: Active
Helicobacter pylori
  Activity: Exihibits good activity
[6]
  Activity: Active
Pasteurella multocida
  Activity: Active
Streptococcus sp. [17]
  Activity: Exihibits good activity
[8]
  Activity: Active

## CC[C@H](C)[C@H](NC(=O)CN)C(=O)NCC(=O)N[C@@H](CCCCN)C(=O)N[C@@H](Cc1ccccc1)C(=O)N[C@@H](CC(C)C)C(=O)N[C@@H](Cc1c[nH]cn1)C(=O)N[C@@H](CO)C(=O)N[C@@H](C)C(=O)N[C@@H](CCCCN)C(=O)N[C@@H](CCCCN)C(=O)N[C@@H](Cc1ccccc1)C(=O)NCC(=O)N[C@@H](CCCCN)C(=O)N[C@@H](C)C(=O)N[C@@H](Cc1ccccc1)C(=O)N[C@H](C(=O)NCC(=O)N[C@@H](CCC(=O)O)C(=O)N[C@H](C(=O)N[C@@H](CCSC)C(=O)N[C@@H](CC(N)=O)C(=O)N[C@@H](CO)C(=O)O)[C@@H](C)CC)C(C)C [MAGAININ 2] (H-GIGKFLHSAKKFGKAFVGEIMNS-OH)
[1]
  MIC: 5 µg/mL (≈ 2.03 µM)

## CCN(CC)CCS(=O)(=O)[C@@H]1CCN2C(=O)c3coc(n3)CC(=O)C[C@H](O)/C=C(C)/C=C/CNC(=O)/C=C/[C@@H](C)[C@@H](C(C)C)OC(=O)[C@@H]12 [DALFOPRISTIN]
[18]
  MIC90: 0.5 µg/mL (≈ 0.724 µM)
Staphylococcus aureus [19]
  MIC90: 1 µg/mL (≈ 1.45 µM)

## N[C@@H]1[C@H]2CN(c3nc4c(cc3F)c(=O)c(C(=O)O)cn4-c3ccc(F)cc3F)C[C@@H]12 [TROVAFLOXACIN]
Enterococcus faecalis [20]
  MIC: 0.25 µg/mL (≈ 0.6 µM)
Staphylococcus sp. [21]
  MIC: 2 µg/mL (≈ 4.8 µM)
Streptococcus pneumoniae [22]
  MIC: 0.12 µg/mL (≈ 0.288 µM)

## CN[C@H](CC(C)C)C(=O)N[C@H]1C(=O)N[C@@H](CC(N)=O)C(=O)N[C@H]2C(=O)N[C@H]3C(=O)N[C@](C)(C(=O)N[C@H](C(=O)O)c4cc(O)cc(O)c4-c4cc3ccc4O)[C@H](C[C@H]3C[C@](C)(N)[C@@H](O)[C@H](C)O3)c3ccc(c(Cl)c3)Oc3cc2cc(c3O[C@@H]2O[C@H](CO)[C@@H](O)[C@H](O)[C@H]2O[C@@H]2C[C@](C)(N)[C@@H](O)[C@H](C)O2)Oc2ccc(cc2Cl)[C@H]1O [VANCOMYCIN DERIVATIVE (EPIVANCOMYCIN LINKED WITH ADDITIONAL AMINO SUGAR)]
Enterococcus faecalis [23]
  MIC: 2 µg/mL (≈ 1.25 µM)
Enterococcus faecium [24]
  MIC: 2 µg/mL (≈ 1.25 µM)
Bacteria
  MIC: 32 µg/mL (≈ 19.9 µM)
Enterococcus
  MIC: 500 µg/mL (≈ 312 µM)

## CCCCCOc1ccc(CN[C@@]2(C)C[C@@H](O[C@H]3[C@H](Oc4c5cc6cc4Oc4ccc(cc4Cl)[C@@H](C[C@H]4C[C@](C)(N)[C@@H](O)[C@H](C)O4)[C@]4(C)NC(=O)[C@H](NC(=O)[C@@H]6NC(=O)[C@H](CC(N)=O)NC(=O)[C@H](NC(=O)[C@@H](CC(C)C)NC)[C@H](O)c6ccc(c(Cl)c6)O5)c5ccc(O)c(c5)-c5c(O)cc(O)cc5[C@@H](C(=O)O)NC4=O)O[C@H](CO)[C@@H](O)[C@@H]3O)O[C@@H](C)[C@@H]2O)cc1
Enterococcus faecium [25]
  MIC: 0.03 µg/mL (≈ 0.0168 µM)
Staphylococcus aureus [26]
  MIC: ≤ 0.5 µg/mL
Streptococcus pyogenes
  MIC: < 0.06 µg/mL
Streptococcus pneumoniae [27]
  MIC: < 0.008 µg/mL
[28]
  MIC: 0.016 µg/mL (≈ 0.00898 µM)
Enterococcus faecalis [29]
  MIC: 0.03 µg/mL (≈ 0.0168 µM)

## CNC(=O)C[C@@H]1NC(=O)c2csc(n2)-c2ccc(-c3nc(C4=N[C@H](C(=O)N5CCC[C@H]5C(N)=O)CO4)cs3)nc2-c2csc(n2)-c2csc(n2)[C@H]([C@@H](O)c2ccccc2)NC(=O)CNC(=O)c2nc(sc2COC)[C@H](C(C)C)NC(=O)c2nc1sc2C
Mus musculus [30]
  ED50: 1.8 mg/kg
Mus musculus [31]
  ED50: 15.2 mg/kg
Mus musculus [32]
  ED50: 9.1 mg/kg

## N[C@@H]1CN(c2c(F)cc3c(=O)c(C(=O)O)cn(C4C[C@@H]4F)c3c2Cl)CC12CC2 (single isomer, unassigned) [SITAFLOXACIN ANHYDROUS]
Enterococcus faecalis [33]
  MIC90: 1 µg/mL (≈ 2.44 µM)
Enterococcus faecium [34]
  MIC90: 0.5 µg/mL (≈ 1.22 µM)
Streptococcus sp. [35]
  MIC90: ≤ 0.125 µg/mL
Staphylococcus aureus [26]
  MIC90: 1 µg/mL (≈ 2.44 µM)
Staphylococcus sp. [36]
  MIC90: ≤ 0.06 µg/mL
